Experimental data: US9669034B2, “4-aryl-N-phenyl-1,3,5-triazin-2-amines containing a sulfoximine group” (BAYER INTELLECTUAL PROPERTY GMBH, priority 2011, dated 2017)
Values after ≈ are worked out from the molar mass of the structure shown. Like-named read-outs stand apart in the source and are kept apart here.

Legend:
CDK9/CycT1 = CDK9/CycT1 (Homo sapiens (Human), UniProt P50750); test: CDK9/CycT1 kinase assay (TR-FRET); assay type: biochemical; conditions: Method 1
Outline: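 Recombinant full-length His-tagged human CDK9/CycT1, insect-cell expressed and Ni-NTA purified. Substrate is a biotinylated peptide (biotin-Ttds-linked). Kinase inhibition is read out by TR-FRET.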

CDK2/CycE = CDK2/CycE (Homo sapiens (Human), UniProt P24941); test: CDK2/CycE kinase assay (TR-FRET); assay type: biochemical; conditions: Method 2
Outline: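 Enzyme was GST-tagged human CDK2 with GST-tagged human CycE, expressed in Sf9 insect cells and glutathione-affinity purified. The kinase reaction used a biotinylated peptide substrate, with inhibition measured by TR-FRET.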

[1] = system: HeLa human cervical tumour cells; test: Proliferation assay (crystal violet), HeLa; assay type: cell-based; conditions: Method 3, read-out: Inhibition of HeLa cell proliferation, IC50
Outline: (§1)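 Cells were seeded at 3000/well (NCI-H460, HeLa), 5000/well (HeLa-MaTu-ADR) or 1500/well (Caco-2) in medium with 10% FCS. After 24 h, compounds ([…], 0.5% DMSO) were added for 4 days. Crystal violet absorbance at 595 nm was normalized to a zero-point plate and untreated cells; IC50 came from a 4-parameter fit.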

[2] = Equilibrium shake flask solubility assay; assay type: physicochemical; conditions: pH 6.5, equilibrium shake flask method; for solubility thermodynamic at 24 h: phosphate buffer, pH 6.5, aqueous buffer, thermodynamic from solid, water
Method: 4. Equilibrium Shake Flask Solubility Assay:
The thermodynamic solubility of compounds in water was determined by an equilibrium shake flask method (see for example: E. H. Kerns, L. Di: Drug-like Properties: Concepts, Structure Design and Methods, 276-286, Burlington, Mass., Academic Press, 2008). A saturated solution of the drug was prepared and the solution was mixed for 24 h to ensure that equilibrium was reached. The solution was centrifuged to remove the insoluble fraction and the concentration of the compound in solution was determined using a standard calibration curve.
To prepare the sample, 2 mg solid compound was weighed in a 4 mL glass vial. 1 mL phosphate buffer pH 6.5 was added. The suspension was stirred for 24 hrs at room temperature. The solution was centrifuged afterwards. To prepare the sample for the standard calibration, 2 mg solid sample was dissolved in 30 mL acetonitrile. After sonification the solution was diluted with water to 50 mL. Sample and standards were quantified by HPLC with UV-detection. For each sample two injection volumes (5 and 50 μl) in triplicates were made. Three injection volumes (5 μl, 10 μl and 20 μl) were made for the standard.
Chromatographic Conditions:
The areas of sample- and standard injections as well as the calculation of the solubility value (in mg/l) were determined by using HPLC software (Waters Empower 2 FR).

[3] = system: HeLa-MaTu-ADR, multidrug-resistant human cervical carcinoma cells; test: Proliferation assay (crystal violet), HeLa-MaTu-ADR; assay type: cell-based; conditions: Method 3, read-out: Inhibition of HeLa/MaTu/ADR cell proliferation, IC50
Outline: as §1

[4] = system: NCI-H460, human non-small cell lung carcinoma cells; test: Proliferation assay (crystal violet), NCI-H460; assay type: cell-based; conditions: Method 3, read-out: Inhibition of NCI-H460 cell proliferation, IC50
Outline: as §1

[5] = system: DU145, hormone-independent human prostate carcinoma cells; test: Proliferation assay (crystal violet), DU145; assay type: cell-based; conditions: Method 3, read-out: Inhibition of DU145 cell proliferation, IC50
Outline: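 DU145 hormone-independent human prostate carcinoma cells (ATCC HTB-81) were seeded at 5000 cells/well in 96-well plates in 200 μL growth medium with 10% fetal calf serum. After 24 hours, a zero-point plate was stained. The other plates got fresh medium containing test substances ([…], 0.5% dimethylsulfoxide) and were incubated for 4 days.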

[6] = system: Caco-2 human colorectal carcinoma; test: Proliferation assay (crystal violet), Caco-2; assay type: cell-based; conditions: Method 3, read-out: Inhibition of Caco-2 cell proliferation, IC50
Outline: as §1

[7] = system: B16F10 mouse melanoma cells; test: Proliferation assay (crystal violet), B16F10; assay type: cell-based; conditions: Method 3, read-out: Inhibition of B16F10 cell proliferation, IC50
Outline: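 B16F10 mouse melanoma cells (ATCC CRL-6475) were seeded at 1000 cells/well into 96-well plates in 200 μL growth medium containing 10% fetal calf serum. After 24 hours, one zero-point plate was stained with crystal violet. The remaining plates got fresh medium with test substances (0 M and […], 0.5% dimethylsulfoxide) and were incubated for 4 days.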

[8] = Homo sapiens, NCI-H460, NCI-H460 cells
[9] = Homo sapiens, Caco-2, Caco-2 cells
[10] = Mus musculus, B16-F10, B16F10 cells
[11] = Homo sapiens, DU-145, DU145 cells

Sequence of CDK9/CycT1 (P50750 whole entry): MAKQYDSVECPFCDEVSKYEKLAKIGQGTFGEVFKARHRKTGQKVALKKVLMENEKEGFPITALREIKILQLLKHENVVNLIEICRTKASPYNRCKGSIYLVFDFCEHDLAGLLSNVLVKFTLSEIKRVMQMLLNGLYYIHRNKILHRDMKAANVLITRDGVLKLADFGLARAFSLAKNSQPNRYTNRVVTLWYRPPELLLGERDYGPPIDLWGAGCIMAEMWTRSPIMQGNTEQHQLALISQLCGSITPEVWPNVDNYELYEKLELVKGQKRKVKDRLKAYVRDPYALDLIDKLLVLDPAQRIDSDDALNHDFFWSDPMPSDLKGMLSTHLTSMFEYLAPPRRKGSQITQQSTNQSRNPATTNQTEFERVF
Sequence of CDK9/CycT1 (O60563 whole entry partner): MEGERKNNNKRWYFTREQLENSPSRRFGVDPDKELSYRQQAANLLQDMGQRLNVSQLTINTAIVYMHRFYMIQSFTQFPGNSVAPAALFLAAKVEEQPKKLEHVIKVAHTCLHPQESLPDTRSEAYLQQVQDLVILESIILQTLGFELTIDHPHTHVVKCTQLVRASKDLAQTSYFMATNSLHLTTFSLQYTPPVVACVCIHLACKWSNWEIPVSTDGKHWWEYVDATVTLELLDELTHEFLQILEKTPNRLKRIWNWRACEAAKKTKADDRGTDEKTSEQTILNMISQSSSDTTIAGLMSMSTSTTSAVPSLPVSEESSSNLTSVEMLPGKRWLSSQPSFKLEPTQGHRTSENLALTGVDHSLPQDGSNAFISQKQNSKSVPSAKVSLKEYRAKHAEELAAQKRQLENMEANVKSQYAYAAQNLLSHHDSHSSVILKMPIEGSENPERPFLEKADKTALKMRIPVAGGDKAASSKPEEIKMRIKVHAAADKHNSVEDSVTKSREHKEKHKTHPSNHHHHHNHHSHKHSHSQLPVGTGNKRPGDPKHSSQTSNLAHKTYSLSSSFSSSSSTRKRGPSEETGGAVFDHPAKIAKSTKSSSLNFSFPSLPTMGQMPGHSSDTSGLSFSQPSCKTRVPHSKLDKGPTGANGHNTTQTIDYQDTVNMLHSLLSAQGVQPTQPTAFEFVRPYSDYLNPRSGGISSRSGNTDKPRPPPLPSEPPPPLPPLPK

| Structure (SMILES) | IC50 (CDK9/CycT1) [nM] | IC50 (CDK2/CycE) [nM] | IC50 ([1]; Homo sapiens, HeLa) [nM] | solubility thermodynamic at 24 h [2] [µg/mL] | further results |
| --- | --- | --- | --- | --- | --- |
| COc1cc(F)c(F)cc1-c1ncnc(Nc2cccc(CS(C)(=N)=O)c2)n1 (racemic) [Example 10, (rac)-4-(4,5-Difluoro-2-methoxyphenyl)-N-{3-[(S-methylsulfonimidoyl)methyl]phenyl}-1,3,5-triazin-2-amine] | 28 | 1300 | 1100 | 130 (≈ 321 µM) |  |
| CCCOc1cc(F)ccc1-c1ncnc(Nc2cccc(CS(C)(=N)=O)c2)n1 (racemic) [Example 91, (rac)-4-(4-Fluoro-2-propoxyphenyl)-N-{3-[(S-methylsulfonimidoyl)methyl]phenyl}-1,3,5-triazin-2-amine] | 29 | 2300 | 1100 | 104 (≈ 250 µM) |  |
| COc1ccc(F)cc1-c1ncnc(Nc2cccc(CS(C)(=N)=O)c2)n1 (single isomer, unassigned) [Example 22, 4-(5-Fluoro-2-methoxyphenyl)-N-{3-[(S-methylsulfonimidoyl)methyl]phenyl}-1,3,5-triazin-2-amine] | 91 | 2800 |  | 787 (≈ 2030 µM) |  |
| COc1ccc(F)cc1-c1ncnc(Nc2cccc(CS(C)(=N)=O)c2)n1 (single isomer, unassigned) [Example 23, 4-(5-Fluoro-2-methoxyphenyl)-N-{3-[(S-methylsulfonimidoyl)methyl]phenyl}-1,3,5-triazin-2-amine] | 110 | 5600 |  |  | Thermodynamic solubility in water at pH 6.5 [2]: 888 mg/l |
| CS(=N)(=O)Cc1cccc(Nc2ncnc(-c3cccc4c3OCCC4)n2)c1 (single isomer, unassigned) [Example 31, 4-(3,4-Dihydro-2H-chromen-8-yl)-N-{3-[(S-methylsulfonimidoyl)methyl]phenyl}-1,3,5-triazin-2-amine] |  | 670 |  | 1000 (≈ 2530 µM) |  |
| CS(=N)(=O)Cc1cccc(Nc2ncnc(-c3cccc4c3OCCC4)n2)c1 (single isomer, unassigned) [Example 32, 4-(3,4-Dihydro-2H-chromen-8-yl)-N-{3-[(S-methylsulfonimidoyl)methyl]phenyl}-1,3,5-triazin-2-amine] |  | 1600 |  |  | Thermodynamic solubility in water at pH 6.5 [2]: 1000 mg/l |
| CS(=N)(=O)Cc1cccc(Nc2ncnc(-c3cccc4c3OCCO4)n2)c1 (single isomer, unassigned) [Example 39, 4-(2,3-Dihydro-1,4-benzodioxin-5-yl)-N-{3-[(S-methylsulfonimidoyl)methyl]phenyl}-1,3,5-triazin-2-amine] | 29 | 1500 | 1100 | 819 (≈ 2060 µM) |  |
| CS(=N)(=O)Cc1cccc(Nc2ncnc(-c3cccc4c3OCCO4)n2)c1 (single isomer, unassigned) [Example 40, 4-(2,3-Dihydro-1,4-benzodioxin-5-yl)-N-{3-[(S-methylsulfonimidoyl)methyl]phenyl}-1,3,5-triazin-2-amine] | 25 | 1800 |  |  | IC50 [1]: 1100 nM; Thermodynamic solubility in water at pH 6.5 [2]: 865 mg/l |
| COc1cc(F)ccc1-c1ncnc(Nc2cccc(CS(C)(=O)=NC#N)c2)n1 (single isomer, unassigned) [Example 49, [(3-{[4-(4-fluoro-2-methoxyphenyl)-1,3,5-triazin-2-yl]amino}benzyl)(methyl)oxido-λ^6-sulfanylidene]cyanamide] | 7 | 650 |  | 88 (≈ 213 µM) |  |
| COc1cc(F)ccc1-c1ncnc(Nc2cc(F)cc(CS(C)(=N)=O)c2)n1 (single isomer, unassigned) [Example 54, 4-(4-Fluoro-2-methoxyphenyl)-N-{3-fluoro-5-[(S-methylsulfonimidoyl)methyl]phenyl}-1,3,5-triazin-2-amine] |  | 850 |  | 120 (≈ 296 µM) |  |
| CC#CCOc1cc(F)ccc1-c1ncnc(Nc2cccc(CS(C)(=N)=O)c2)n1 (single isomer, unassigned) [Example 74, 4-[2-(But-2-yn-1-yloxy)-4-fluorophenyl]-N-{3-[(S-methylsulfonimidoyl)methyl]phenyl}-1,3,5-triazin-2-amine] | 3 | 590 | 310 |  | IC50 ([3]; Homo sapiens, HeLa): 340 nM; IC50 [4, 8]: 330 nM; IC50 ([5]; DU145 cells): 360 nM; IC50 [6, 9]: 390 nM; IC50 [7, 10]: 340 nM |
| CC#CCOc1cc(F)ccc1-c1ncnc(Nc2cccc(CS(C)(=N)=O)c2)n1 (single isomer, unassigned) [Example 75, 4-[2-(But-2-yn-1-yloxy)-4-fluorophenyl]-N-{3-[(S-methylsulfonimidoyl)methyl]phenyl}-1,3,5-triazin-2-amine] | 4 | 450 |  |  | IC50 [1]: 260 nM; IC50 [3]: 210 nM; IC50 ([4]; NCI-H460 cells): 220 nM; IC50 ([5]; DU145 cells): 170 nM; IC50 ([6]; Caco-2 cells): 310 nM; IC50 ([7]; B16F10 cells): 240 nM |
| C#CCOc1cc(F)ccc1-c1ncnc(Nc2cccc(CS(C)(=N)=O)c2)n1 (single isomer, unassigned) [Example 78, 4-[4-Fluoro-2-(prop-2-yn-1-yloxy)phenyl]-N-{3-[(S-methylsulfonimidoyl)methyl]phenyl}-1,3,5-triazin-2-amine] | 9 | 580 | 650 |  | IC50 ([3]; Homo sapiens, HeLa): 260 nM; IC50 [4, 8]: 390 nM; IC50 [5, 11]: 370 nM; IC50 [6, 9]: 760 nM; IC50 [7, 10]: 500 nM |
| C#CCOc1cc(F)ccc1-c1ncnc(Nc2cccc(CS(C)(=N)=O)c2)n1 (single isomer, unassigned) [Example 79, 4-[4-Fluoro-2-(prop-2-yn-1-yloxy)phenyl]-N-{3-[(S-methylsulfonimidoyl)methyl]phenyl}-1,3,5-triazin-2-amine] | 5 | 440 |  |  | IC50 [1]: 440 nM; IC50 [3]: 350 nM; IC50 ([4]; NCI-H460 cells): 420 nM; IC50 ([5]; DU145 cells): 380 nM; IC50 ([6]; Caco-2 cells): 390 nM; IC50 ([7]; B16F10 cells): 370 nM |
| CS(=N)(=O)Cc1cccc(Nc2ncnc(-c3ccc(F)cc3OCc3ccnc(F)c3)n2)c1 (single isomer, unassigned) [Example 83, 4-{4-Fluoro-2-[(2-fluoropyridin-4-yl)methoxy]phenyl}-N-{3-[(S-methylsulfonimidoyl)methyl]phenyl}-1,3,5-triazin-2-amine] | 2 | 270 | 110 |  | IC50 ([3]; Homo sapiens, HeLa): 640 nM; IC50 [4, 8]: 180 nM; IC50 [5, 11]: 180 nM; IC50 [6, 9]: 210 nM; IC50 [7, 10]: 220 nM |
| CS(=N)(=O)Cc1cccc(Nc2ncnc(-c3ccc(F)cc3OCc3ccnc(F)c3)n2)c1 (single isomer, unassigned) [Example 84, 4-{4-Fluoro-2-[(2-fluoropyridin-4-yl)methoxy]phenyl}-N-{3-[(S-methylsulfonimidoyl)methyl]phenyl}-1,3,5-triazin-2-amine] | 3 | 220 |  |  | IC50 [1]: 120 nM; IC50 [3]: 340 nM; IC50 ([4]; NCI-H460 cells): 180 nM; IC50 ([5]; DU145 cells): 180 nM; IC50 ([6]; Caco-2 cells): 180 nM; IC50 ([7]; B16F10 cells): 210 nM |
